Results: patent US12110295B2, “WD40 repeat domain protein 5 (WDR5) degradation/disruption compounds and methods of use” (Icahn School of Medicine at Mount Sinai, priority 2018, dated 2024)
“Also recorded” adds a separate entry of the source.

Assays:
Type in all cases: cell-based
[1] = system: MIAPACA2 cells; assay: MTT cell proliferation assay in MIAPACA2 cells; conditions: 6 days, FIG. 11; for proliferation of MIAPACA2 cells: 0.01, 0.03, 0.1, 0.5, 1, 5 and 10 μM
Protocol: Assessment of the cell proliferation effects of WDR5 degraders XF056-132, XF056-173 and XF067-67 in MIAPACA2 cells (FIG. 11). MIAPACA2 cells were treated with DMSO or indicated compounds at 0.01 μM, 0.03 μM, 0.1 μM, 0.5 μM, 1 μM, 5 μM, and 10 μM for 6 days. MTT assay was used for detecting cell proliferation effects.
(§1) MIAPACA2 and Hela cells were cultured in DMEM supplemented with 10% FBS and 1% Penicillin/Streptomycin.

[2] = molecular target: T1, WDR5 (Homo sapiens, UniProt P61964); assay: Western blot of WDR5 protein levels in MIAPACA2 cells; parameters: After WDR5 degrader treatment, cells were collected and lysed; endogenous in cells; host or cells: MV4;11 and/or MIAPACA2; conditions: 18 h
Protocol: MIAPACA2 cells were treated with DMSO or indicated compounds at 0.1 μM, 0.5 μM, 1 μM, 5 μM, and 10 μM for 18 hours.
MIAPACA2 cells were treated with DMSO or indicated compounds at 0.5 μM and 1.0 μM for 18 hours.
MIAPACA2 cells were treated with DMSO or indicated compounds at 0.1 μM and 0.5 μM for 18 hours.
MIAPACA2 cells were treated with DMSO or indicated compounds at 0.5 μM and 1.0 μM or at 1.0 μM and 10 μM for 18 hours.
as §1
WDR5 degraders were dissolved in DMSO and DMSO with no degraders was used as the control. 1×10^6 MV4;11 cells or 1×10^5 MIAPACA2 or 2×10^5 Hela cells were seeded in 2 mL medium for each well in […].
For prescreening of all the compounds, each test compound was added to the medium at indicated concentrations. After 18 h treatment, cells were collected.
After WDR5 degrader treatment, cells were collected and lysed. Total cell lysates were used for western blot. The following primary antibodies were used: WDR5 (Santa Cruz), vinculin (Cell Signaling Technology), tubulin (Cell Signaling Technology), GAPDH (Santa Cruz). Blots were imaged using fluorescence-labeled secondary antibodies on ChemiDoc™ Imaging Systems.

[3] = molecular target: T1, WDR5; assay: Screening of putative WDR5 degraders by Western blot in MV4;11 and/or MIAPACA2 cells; parameters: After WDR5 degrader treatment, cells were collected and lysed; endogenous in cells; host or cells: MV4;11 and/or MIAPACA2; conditions: summary of screening, FIGS. 6-10
In short: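 MV4;11 (1×10^6/well) or MIAPACA2 (1×10^5/well) cells treated 18 h with compound at paired doses between 0.1 and 10 μM, DMSO as control. Total lysates immunoblotted for WDR5 with vinculin, tubulin or GAPDH loading controls; fluorescent secondary detection.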

SMILES	effective degradation of WDR5 in MV4;11 and/or MIAPACA2 cells [3]	further results
Cc1ncsc1-c1ccc([C@H](C)NC(=O)[C@@H]2C[C@@H](O)CN2C(=O)[C@@H](NC(=O)CNC(=O)c2ccc(F)c(-c3ccc(N4C[C@@H](C)N(C)[C@@H](C)C4)c(NC(=O)c4c[nH]c(=O)cc4C(F)(F)F)c3)c2)C(C)(C)C)cc1 [XF067-67, N-(2′-fluoro-5′-((2-(((S)-1-((2S,4R)-4-hydroxy-2-(((S)-1-(4-(4-methylthiazol-5-yl)phenyl)ethyl)carbamoyl)pyrrolidin-1-yl)-3,3-dimethyl-1-oxobutan-2-yl)amino)-2-oxoethyl)carbamoyl)-4-((3S,5R)-3,4,5-trimethylpiperazin-1-yl)-[1,1′-biphenyl]-3-yl)-6-oxo-4-(trifluoromethyl)-1,6-dihydropyridine-3-carboxamide]	–	proliferation of MIAPACA2 cells [1]: significantly decreased the cell proliferation; also recorded: significantly reduced the proliferation of MIAPACA2 cells; cell killing effect, rank among the 3 compounds ([1]; MIAPACA2 cells): the best cell killing effect among the 3 compounds
CN1CCN(c2ccc(-c3cccc(CN4CCN(CCNC(=O)CCCCCCCNc5cccc6c5C(=O)N(C5CCC(=O)NC5=O)C6=O)CC4)c3)cc2NC(=O)c2c[nH]c(=O)cc2C(F)(F)F)CC1 (stereo not drawn) [XF048-140, N-(3′-((4-(2-(8-((2-(2,6-dioxopiperidin-3-yl)-1,3-dioxoisoindolin-4-yl)amino)octanamido)ethyl)piperazin-1-yl)methyl)-4-(4-methylpiperazin-1-yl)-[1,1′-biphenyl]-3-yl)-6-oxo-4-(trifluoromethyl)-1,6-dihydropyridine-3-carboxamide]	able to effectively degrade WDR5	reduction of WDR5 protein levels, concentration-dependent ([2]; MIAPACA2 cells, 0.1, 0.5, 1, 5 and 10 μM, FIG. 5): reduced WDR5 protein levels
Cc1ncsc1-c1ccc(CNC(=O)[C@@H]2C[C@@H](O)CN2C(=O)[C@@H](NC(=O)CCCCCCCC(=O)N2CCN(Cc3cnc(N4CC=C(c5cc(NC(=O)c6c[nH]c(=O)cc6C(F)(F)F)c(N6C[C@@H](C)N(C)[C@@H](C)C6)cc5F)CC4)nc3)CC2)C(C)(C)C)cc1 [XF078-146, N-(4-fluoro-5-(1-(5-((4-(9-(((S)-1-((2S,4R)-4-hydroxy-2-((4-(4-methylthiazol-5-yl)benzyl)carbamoyl)pyrrolidin-1-yl)-3,3-dimethyl-1-oxobutan-2-yl)amino)-9-oxononanoyl)piperazin-1-yl)methyl)pyrimidin-2-yl)-1,2,3,6-tetrahydropyridin-4-yl)-2-((3S,5R)-3,4,5-trimethylpiperazin-1-yl)phenyl)-6-oxo-4-(trifluoromethyl)-1,6-dihydropyridine-3-carboxamide]	able to effectively degrade WDR5	–
Cc1ncsc1-c1ccc(CNC(=O)[C@@H]2C[C@@H](O)CN2C(=O)[C@@H](NC(=O)CCCCCCCCCNC(=O)c2ccc(-c3ccc(N4C[C@@H](C)N(C)[C@@H](C)C4)c(NC(=O)c4c[nH]c(=O)cc4C(F)(F)F)c3)c(F)c2)C(C)(C)C)cc1 [XF056-173, N-(2′-fluoro-4′-((10-(((S)-1-((2S,4R)-4-hydroxy-2-((4-(4-methylthiazol-5-yl)benzyl)carbamoyl)pyrrolidin-1-yl)-3,3-dimethyl-1-oxobutan-2-yl)amino)-10-oxodecyl)carbamoyl)-4-((3R,5S)-3,4,5-trimethylpiperazin-1-yl)-[1,1′-biphenyl]-3-yl)-6-oxo-4-(trifluoromethyl)-1,6-dihydropyridine-3-carboxamide]	able to effectively degrade WDR5	proliferation of MIAPACA2 cells [1]: significantly decreased the cell proliferation; also recorded: significantly reduced the proliferation of MIAPACA2 cells
C[C@@H]1CN(c2cc(F)c(-c3cnc(N4CCN(C(=O)CCOCCOCCOCCOCCOCCNc5cccc6c5C(=O)N(C5CCC(=O)NC5=O)C6=O)CC4)nc3)cc2NC(=O)c2ccc(F)cc2C(F)(F)F)C[C@H](C)N1C (stereo partly drawn) [XF078-127, N-(5-(2-(4-(1-((2-(2,6-dioxopiperidin-3-yl)-1,3-dioxoisoindolin-4-yl)amino)-3,6,9,12,15-pentaoxaoctadecan-18-oyl)piperazin-1-yl)pyrimidin-5-yl)-4-fluoro-2-((3S,5R)-3,4,5-trimethylpiperazin-1-yl)phenyl)-4-fluoro-2-(trifluoromethyl)benzamide]	able to effectively degrade WDR5	–
Cc1ncsc1-c1ccc(CNC(=O)[C@@H]2C[C@@H](O)CN2C(=O)[C@@H](NC(=O)CCCCC(=O)N2CC=C(c3cc(NC(=O)c4c[nH]c(=O)cc4C(F)(F)F)c(N4C[C@@H](C)N(C)[C@@H](C)C4)cc3F)CC2)C(C)(C)C)cc1 [XF078-41, N-(4-fluoro-5-(1-(6-(((S)-1-((2S,4R)-4-hydroxy-2-((4-(4-methylthiazol-5-yl)benzyl)carbamoyl)pyrrolidin-1-yl)-3,3-dimethyl-1-oxobutan-2-yl)amino)-6-oxohexanoyl)-1,2,3,6-tetrahydropyridin-4-yl)-2-((3S,5R)-3,4,5-trimethylpiperazin-1-yl)phenyl)-6-oxo-4-(trifluoromethyl)-1,6-dihydropyridine-3-carboxamide]	able to effectively degrade WDR5	–
Cc1ncsc1-c1ccc(CNC(=O)[C@@H]2C[C@@H](O)CN2C(=O)[C@@H](NC(=O)COCCOCCOCCOCCOCC(=O)NCCN2CCN(Cc3ccc(F)c(-c4ccc(N5C[C@@H](C)N(C)[C@@H](C)C5)c(NC(=O)c5c[nH]c(=O)cc5C(F)(F)F)c4)c3)CC2)C(C)(C)C)cc1 [XF078-8, N^1-(2-(4-((6-fluoro-3′-(6-oxo-4-(trifluoromethyl)-1,6-dihydropyridine-3-carboxamido)-4′-((3S,5R)-3,4,5-trimethylpiperazin-1-yl)-[1,1′-biphenyl]-3-yl)methyl)piperazin-1-yl)ethyl)-N^17-((S)-1-((2S,4R)-4-hydroxy-2-((4-(4-methylthiazol-5-yl)benzyl)carbamoyl)pyrrolidin-1-yl)-3,3-dimethyl-1-oxobutan-2-yl)-3,6,9,12,15-pentaoxaheptadecanediamide]	able to effectively degrade WDR5	–
Cc1ncsc1-c1ccc([C@H](C)NC(=O)[C@@H]2C[C@@H](O)CN2C(=O)[C@@H](NC(=O)CCCCCCCCCC(=O)NCCN2CCN(Cc3cccc(-c4ccc(N5CCN(C)CC5)c(NC(=O)c5c[nH]c(=O)cc5C(F)(F)F)c4)c3)CC2)C(C)(C)C)cc1 [XF050-166, N^1-((S)-1-((2S,4R)-4-hydroxy-2-(((S)-1-(4-(4-methylthiazol-5-yl)phenyl)ethyl)carbamoyl)pyrrolidin-1-yl)-3,3-dimethyl-1-oxobutan-2-yl)-N^11-(2-(4-((4′-(4-methylpiperazin-1-yl)-3′-(6-oxo-4-(trifluoromethyl)-1,6-dihydropyridine-3-carboxamido)-[1,1′-biphenyl]-3-yl)methyl)piperazin-1-yl)ethyl)undecanediamide]	able to effectively degrade WDR5	WDR5 degradation effects ([2]; MIAPACA2 cells, 0.5 μM and 1.0 μM, FIG. 7): better WDR5 degradation effects than XF048-132 and XF048-140
